From article PMC4657098, “A Review of the Updated Pharmacophore for the Alpha 5 GABA(A) Benzodiazepine Receptor Model” (International Journal of Medicinal Chemistry, 2015)
“Also recorded” adds a separate entry of the source.

Legend:
DAT = target: T1, DAT (Homo sapiens, UniProt Q01959); assay: PDSP receptor binding, DAT; settings: PDSP primary screen at 10 µM
T1 construct: purchased NIMH PDSP (Psychoactive Drug Screening Program, Roth lab, Case Western Reserve)

DOR = target: T2, DOR (Homo sapiens, UniProt P41143); assay: PDSP receptor binding, DOR; settings: PDSP primary screen at 10 µM
T2 construct: purchased NIMH PDSP (Psychoactive Drug Screening Program, Roth lab, Case Western Reserve)

H1 = target: T3, H1 (Homo sapiens, UniProt P35367); assay: PDSP receptor binding, H1; settings: PDSP primary screen at 10 µM
T3 construct: purchased NIMH PDSP (Psychoactive Drug Screening Program, Roth lab, Case Western Reserve)

H2 = target: T4, H2 (Homo sapiens, UniProt P25021); assay: PDSP receptor binding, H2; settings: PDSP primary screen at 10 µM
T4 construct: purchased NIMH PDSP (Psychoactive Drug Screening Program, Roth lab, Case Western Reserve)

H3 = target: T5, H3 (Homo sapiens, UniProt Q9Y5N1); assay: PDSP receptor binding, H3; settings: PDSP primary screen at 10 µM
T5 construct: purchased NIMH PDSP (Psychoactive Drug Screening Program, Roth lab, Case Western Reserve)

H4 = target: T6, H4 (Homo sapiens, UniProt Q9H3N8); assay: PDSP receptor binding, H4; settings: PDSP primary screen at 10 µM
T6 construct: purchased NIMH PDSP (Psychoactive Drug Screening Program, Roth lab, Case Western Reserve)

Imidaz oline = assay: PDSP receptor binding, Imidazoline; settings: PDSP primary screen at 10 µM
KOR = KOR (Homo sapiens, UniProt P41145); assay: PDSP receptor binding, KOR; settings: Case Western Reserve University, read-out: KOR Ki (secondary binding)
M1 = target: T7, M1 (Homo sapiens, UniProt P11229); assay: PDSP receptor binding, M1; settings: PDSP primary screen at 10 µM
T7 construct: purchased NIMH PDSP (Psychoactive Drug Screening Program, Roth lab, Case Western Reserve)

M2 = target: T8, M2 (Homo sapiens, UniProt P08172); assay: PDSP receptor binding, M2; settings: PDSP primary screen at 10 µM
T8 construct: purchased NIMH PDSP (Psychoactive Drug Screening Program, Roth lab, Case Western Reserve)

M3 = target: T9, M3 (Homo sapiens, UniProt P20309); assay: PDSP receptor binding, M3; settings: PDSP primary screen at 10 µM
T9 construct: purchased NIMH PDSP (Psychoactive Drug Screening Program, Roth lab, Case Western Reserve)

M4 = target: T10, M4 (Homo sapiens, UniProt P08173); assay: PDSP receptor binding, M4; settings: PDSP primary screen at 10 µM
T10 construct: purchased NIMH PDSP (Psychoactive Drug Screening Program, Roth lab, Case Western Reserve)

M5 = target: T11, M5 (Homo sapiens, UniProt P08912); assay: PDSP receptor binding, M5; settings: PDSP primary screen at 10 µM
T11 construct: purchased NIMH PDSP (Psychoactive Drug Screening Program, Roth lab, Case Western Reserve)

MDR = assay: PDSP receptor binding, MDR; settings: PDSP primary screen at 10 µM
MOR = target: T12, MOR (Homo sapiens, UniProt P35372); assay: PDSP receptor binding, MOR; settings: PDSP primary screen at 10 µM
T12 construct: purchased NIMH PDSP (Psychoactive Drug Screening Program, Roth lab, Case Western Reserve)

NET = target: T13, NET (Homo sapiens, UniProt P23975); assay: PDSP receptor binding, NET; settings: PDSP primary screen at 10 µM
T13 construct: purchased NIMH PDSP (Psychoactive Drug Screening Program, Roth lab, Case Western Reserve)

NMDA = assay: PDSP receptor binding, NMDA; settings: PDSP primary screen at 10 µM
SERT = target: T14, SERT (Homo sapiens, UniProt P31645); assay: PDSP receptor binding, SERT; settings: PDSP primary screen at 10 µM
T14 construct: purchased NIMH PDSP (Psychoactive Drug Screening Program, Roth lab, Case Western Reserve)

σ1 = target: T15, σ1 (Homo sapiens, UniProt Q99720); assay: PDSP receptor binding, σ1; settings: PDSP primary screen at 10 µM
T15 construct: purchased NIMH PDSP (Psychoactive Drug Screening Program, Roth lab, Case Western Reserve)

σ2 = assay: PDSP receptor binding, σ2; settings: PDSP primary screen at 10 µM
mice [1] = settings: cited from earlier work
mice [2] = tested on: mice; set-up: method as in earlier work; settings: cited from earlier work
α1β3γ2 GABAA/BzR = α1β3γ2 GABAA/BzR (Homo sapiens, UniProt P14867+P18507); assay: Competition binding to HEK cell membranes, α1β3γ2; set-up: expressed in transfected cells; settings: Figure 5; read-out: Ki α1
α2β3γ2 GABAA/BzR = α2β3γ2 GABAA/BzR (Homo sapiens, UniProt P18507+P47869); assay: Competition binding to HEK cell membranes, α2β3γ2; set-up: expressed in transfected cells; settings: Figure 5; read-out: Ki α2
α3β3γ2 GABAA/BzR = α3β3γ2 GABAA/BzR (Homo sapiens, UniProt P18507+P34903); assay: Competition binding to HEK cell membranes, α3β3γ2; set-up: expressed in transfected cells; settings: Figure 5; read-out: Ki α3
α5β3γ2 GABAA/BzR = α5β3γ2 GABAA/BzR (Homo sapiens, UniProt P18507+P31644); assay: Competition binding to HEK cell membranes, α5β3γ2; set-up: expressed in transfected cells; settings: Figure 5; read-out: Ki α5
α6β3γ2 GABAA/BzR = α6β3γ2 GABAA/BzR (Homo sapiens, UniProt P18507+Q16445); assay: Competition binding to HEK cell membranes, α6β3γ2; set-up: expressed in transfected cells; settings: Figure 5; read-out: Ki α6

With CCc1ccc2c(c1)C(=O)N(C)Cc1c(C(=O)OCCCOC(=O)c3ncn4c3CN(C)C(=O)c3cc(CC)ccc3-4)ncn1-2 [XLi-356 (10), 1,3-Bis(8-ethyl-5,6-dihydro-5-methyl-6-oxo-4H-imidazo[1,5a][1,4]benzodiazepine-3-carboxy) propyl diester] the DAT binding (DAT) was “∗ (“∗” indicates “primary missed” (<50% inhibition at 10 µM))”, the DOR binding (DOR) was “∗ (“∗” indicates “primary missed” (<50% inhibition at 10 µM))” and the H1 binding (H1) was “∗ (“∗” indicates “primary missed” (<50% inhibition at 10 µM))”. For the same molecule, the H2 binding (H2) was “∗ (“∗” indicates “primary missed” (<50% inhibition at 10 µM))”, the H3 binding (H3) was “∗ (“∗” indicates “primary missed” (<50% inhibition at 10 µM))” and the H4 binding (H4) was “∗ (“∗” indicates “primary missed” (<50% inhibition at 10 µM))”. The Imidaz oline binding (Imidaz oline) was “∗ (“∗” indicates “primary missed” (<50% inhibition at 10 µM))”, the Ki (KOR) was 6.12 µM and the M1 binding (M1) was “∗ (“∗” indicates “primary missed” (<50% inhibition at 10 µM))”. The M2 binding (M2) was “∗ (“∗” indicates “primary missed” (<50% inhibition at 10 µM))”, the M3 binding (M3) was “∗ (“∗” indicates “primary missed” (<50% inhibition at 10 µM))” and the M4 binding (M4) was “∗ (“∗” indicates “primary missed” (<50% inhibition at 10 µM))”. For the same molecule, the M5 binding (M5) was “∗ (“∗” indicates “primary missed” (<50% inhibition at 10 µM))”, the MDR binding (MDR) was “∗ (“∗” indicates “primary missed” (<50% inhibition at 10 µM))” and the MOR binding (MOR) was “∗ (“∗” indicates “primary missed” (<50% inhibition at 10 µM))”. The NET binding (NET) was “∗ (“∗” indicates “primary missed” (<50% inhibition at 10 µM))”, the NMDA binding (NMDA) was “∗ (“∗” indicates “primary missed” (<50% inhibition at 10 µM))” and the SERT binding (SERT) was “∗ (“∗” indicates “primary missed” (<50% inhibition at 10 µM))”. For the same molecule, the σ1 binding (σ1) was “∗ (“∗” indicates “primary missed” (<50% inhibition at 10 µM))”, the σ2 binding (σ2) was “∗ (“∗” indicates “primary missed” (<50% inhibition at 10 µM))” and the “freezing (contextual memory) after scopolamine” value (mice [1]; 10 mg/kg, scopolamine 1 mg/kg) was “attenuated the impairment of memory”. For the same molecule, the “reversal of scopolamine induced memory deficits” value (mice [1]; mice) was “potently reverse scopolamine induced memory deficits”, the “audio cued fear conditioning” value (mice [2]) was “no activity; also recorded: not able to reverse” and the Ki (α1β3γ2 GABAA/BzR) was 1.85 µM. The Ki (α2β3γ2 GABAA/BzR) was 4.2 µM, the Ki (α3β3γ2 GABAA/BzR) was 8.55 µM and the Ki (α5β3γ2 GABAA/BzR) was 0.101 µM. The Ki (α6β3γ2 GABAA/BzR) was 5 µM.
